Results published in a melting point compilation (Tetko et al.; mined from patent text by program, amines drawn as free bases though some values may be those of a salt).

First: CCOCc1cc2cc(Br)ccc2oc1=Nc1ccc(Cl)cc1
Second: COC(=O)C(Cc1ccc(O)cc1)c1cc2cc(C#N)ccc2o1 (configuration not stated)
The melting point of the first is higher: 144 to 145 °C for the first, 110 to 111 °C for the second.

First: C=CCOc1ccccc1-c1nc2nc(SC)nnc2c(=O)[nH]1
Second: Cn1c(=O)c(Oc2ccccc2F)cc2cnc(S(C)(=O)=O)nc21
The melting point of the first is higher: 238 to 239 °C for the first, 158 to 162 °C for the second.

Compared with `N#CCC(=N)c1cccc(F)c1`, `O=C(CF)c1ccc(F)cc1F` is lower in melting point: 67 to 68 °C for the first, 57 to 58 °C for the second.

First: Cc1ccccc1-c1c(C(=O)O)oc2ccc(Cl)cc12
Second: O=C(NNS(=O)(=O)c1ccccc1)c1cc2cc(Cl)ccc2o1
The melting point of the first is higher: 212 to 214 °C for the first, 181 to 183 °C for the second.

Compared with `COc1cc2c(cc1OC)CN(CCCSc1ccc(NC(=O)c3cccc4c(=O)c5cccc(OC)c5[nH]c34)cc1)CC2`, `COc1cc(-c2nc3ccccc3n2Cc2cccc(C)c2)cc(OC)c1OC` is lower in melting point: 199 °C for the first, 78 °C for the second.

Compared with `CC1CC2(CC(C)(C)C1=O)OC(C)C(C)O2` (configuration not stated), `CCC(C)(CC)NC(=O)C1(O)CC(C)(C)NC(C)(C)C1` is higher in melting point: 71 to 72 °C for the first, 127 to 129 °C for the second.

First: O=C(Cl)c1cccc(C(=O)Cl)c1[N+](=O)[O-]
Second: NC(=O)C1CCc2c(C(=O)c3cccs3)cccc21 (configuration not stated)
The melting point of the first is lower: 129 to 132 °C for the first, 164 to 166 °C for the second.

Compared with `CNC(=O)c1cccc(-c2cccc3cc(Cc4cccc(C(F)(F)F)c4)sc23)c1`, `O=C(N[C@H](Cc1ccc(C(F)(F)F)cc1)[C@@H](O)c1ccc(F)cc1)c1cc(C(F)(F)F)cc(C(F)(F)F)c1` (racemic) is higher in melting point: 104 to 106 °C for the first, 150 to 151 °C for the second.

Compared with `Cc1cc2c(s1)Nc1ccccc1N=C2N1CCN(C)[C@@H](CCc2ccccc2)C1`, `O=C(NCCCCc1ccccc1)Oc1ccc2oc3ccccc3c2c1` is higher in melting point: 87 to 91 °C for the first, 113 to 114 °C for the second.

First: CC1Nc2ccc(-c3csc(C#N)c3)cc2C2(CCCC2)O1 (configuration not stated)
Second: O=C(O)c1ccc(-c2cc(-c3ccc(Cl)cc3)on2)cc1
The melting point of the first is lower: 103 to 104 °C for the first, over 300 °C for the second.

First: O=C(O)c1cccc2cc(-c3ccccc3)oc12
Second: Nc1ccccc1C(=O)Nc1cccc2cc(Br)cnc12
The melting point of the first is higher: 212 to 214 °C for the first, 147 to 150 °C for the second.

Compared with `CCCN(C(=O)Oc1ccccc1)C1Cc2ccc(-c3ccc(=O)[nH]n3)cc2C1` (configuration not stated), `CN(C)CC(O)COc1ccc2c(c1)OC(C)(C)CC2c1cccc2ccccc12` (configuration not stated) is lower in melting point: 140 to 141 °C for the first, 123 to 125 °C for the second.

First: CC(C)(C)CC(C)(C)c1cc(N=Nc2cc(C(=O)O)ccc2Cl)c(O)c(C(C)(C)c2ccccc2)c1
Second: COC(=O)c1cccc(NC(=O)[C@H](Cc2ccccc2)NC(=O)OC(C)(C)C)c1
The melting point of the first is higher: 218 to 220 °C for the first, 62 to 66 °C for the second.

First: Cc1cc2nc(Cl)c(Cl)nc2c([N+](=O)[O-])c1C
Second: COC(=O)c1nc(Cl)c(N2CCCC2)nc1N
The melting point of the first is lower: 133 to 134 °C for the first, 245 to 248 °C for the second.

Compared with `O=C1c2ccccc2-c2c1c1c(c(=O)n2CCCCNS(=O)(=O)c2ccccc2)C=CCC1`, `O=S(=O)(C(=CNc1ccc(Br)cn1)S(=O)(=O)c1ccccc1)c1ccccc1` is lower in melting point: 184 to 186 °C for the first, 177 to 179 °C for the second.

Compared with `CN(C)c1nc2sc3c(NCCc4c[nH]cn4)ncnc3c2c2c1CCC2(C)C`, `CCc1noc(-c2cc3c4cc(N(C)C)ccc4n(CCCCl)c3cn2)n1` is lower in melting point: 261 to 262 °C for the first, 183 to 186 °C for the second.

Compared with `CCCc1nc(-c2ncn3c2COC(=O)c2c(Cl)cccc2-3)no1`, `O=C(O)CCCc1cc2nc(Cl)ccc2n1S(=O)(=O)c1cccc(Cl)c1Cl` is higher in melting point: 130 to 132 °C for the first, 173 to 174 °C for the second.

First: COc1ccc2cc(I)ccc2c1
Second: COc1ccc(COc2ccc([N+](=O)[O-])cc2)cc1
The melting point of the first is higher: 142 to 143 °C for the first, 122 to 124 °C for the second.

Compared with `COc1cc(OC)nc(Oc2cccc3c2C(=O)OC3OC(C)=O)n1` (configuration not stated), `CC(C)=NOCc1nc2c(N)nc3ccccc3c2n1CC(C)C` is higher in melting point: 119 to 120 °C for the first, 194 to 195 °C for the second.

Compared with `CC(C(=O)NO)S(=O)Cc1ccc(Cl)cc1` (configuration not stated), `CCCOC(C)c1ccc(C(=O)O)cc1` (single isomer, unassigned; (+)) is lower in melting point: 132 to 133 °C for the first, 56 to 58 °C for the second.

First: CCc1nnc(-c2ccc(OC)cc2)n1-c1ccc(Cl)cc1
Second: OC(Cn1c(-c2ccc(Cl)cc2)nc2cccnc21)c1ccccc1 (configuration not stated)
The melting point of the first is lower: 162 °C for the first, 166 to 168 °C for the second.

First: Cc1ccc(NC(=O)OC(C)(C)C)c(C)c1
Second: COC(=O)[C@H](Cc1cc(I)c(OCCCBr)c(I)c1)NC(=O)OC(C)(C)C
The melting point of the first is lower: 90 to 91 °C for the first, 102 to 103 °C for the second.

First: O=C(O)CCS(=O)(=O)O
Second: CCC(=O)Nc1ccc(C(=O)[C@H]2C[C@H]2C(=O)O)cc1 (relative stereo)
The melting point of the first is lower: 74.6 °C for the first, 182 to 183 °C for the second.

First: OC1CSC(Oc2ccc(-c3ccc(C(F)(F)F)cc3)nc2)C(O)C1O (configuration not stated)
Second: CC1(C)NC(=O)N(CC(CS(=O)(=O)c2ccc(-c3ccc(C(F)(F)F)cc3)cc2)N(O)C=O)C1=O (configuration not stated)
The melting point of the first is higher: 194 to 195 °C for the first, 180 to 182 °C for the second.

Compared with `N#Cc1c2c(c3c(c1N1CCCC1)CCc1ccccc1-3)-c1ccccc1C2`, `O=C(O)C1CCc2c(c3ccccc3n2C(=O)c2ccccc2)C1` (configuration not stated) is lower in melting point: 220 to 222 °C for the first, 188 to 190 °C for the second.

First: CC(=O)NCCc1c(C(F)(F)F)nn2ccc3c(c12)CCO3
Second: CCCN(C(=O)CC)c1c(C#N)cnn1-c1ccc(OC(F)(F)F)cc1Cl
The melting point of the first is higher: 196 to 198 °C for the first, 83 °C for the second.

First: CN(C)CCNC(=O)c1cc(S(C)(=O)=O)c(Cl)cc1NCc1ccco1
Second: CCN1C(=O)C(C(=O)c2ccco2)c2cc(Cl)cnc21 (configuration not stated)
The melting point of the first is lower: 102 to 105 °C for the first, 162 to 163 °C for the second.

`CSC(=NCCSCc1csc(NC(=N)N)n1)NC#N` and `CCCCN=C(CS(C)=O)c1ccccc1O` (configuration not stated) cannot be ordered by melting point: 127 to 134 °C for the first, 128 to 129 °C for the second.

First: CCOCc1nc2c(N)nc3cc(OCCCn4cccc4)ccc3c2n1CC(C)C
Second: CCOC(=O)COc1ccc2c(=O)c3c(oc2c1)C(=Cc1ccccc1)CC3
The melting point of the first is higher: 160 to 162 °C for the first, 152 to 154 °C for the second.

Compared with `CS(=O)(=O)N(C(=O)OCc1ccccc1)c1cc(O)ccc1OCc1ccccc1`, `COc1ccc(S(=O)(=O)N[C@@H](C(=O)OCc2ccccc2)C(C)C)cc1` is lower in melting point: 138 to 140 °C for the first, 92 to 94 °C for the second.

First: CN(CCCNc1ncc(Cc2ccc(F)cc2)c(=O)[nH]1)c1ccccn1
Second: CCCCc1ncc(Sc2ccccc2C(=O)O)n1Cc1ccc(C(=O)O)cc1
The melting point of the first is lower: 70 °C for the first, 260 to 262 °C for the second.

Compared with `O=C1Cc2cc(F)c(N3C(=O)C4=C(CCCC4)C3=O)cc2N1`, `CN1CCN(C2=Nc3cc(Cl)ccc3Nc3nn(C)nc32)CC1` is lower in melting point: 234 to 236 °C for the first, 200 to 203 °C for the second.

First: CCCc1nc(Cl)c(C(=O)O)n1Cc1ccc(C2(C(=O)O)CC=CC2)s1
Second: COc1ccc(S(=O)(=O)C2(C(=O)O)CCCN(Cc3ccccc3)C2)cc1 (configuration not stated)
The melting point of the first is higher: 170 to 172 °C for the first, 133 °C for the second.

First: O=C(NCc1ccncc1)c1cccnc1Oc1cccnc1
Second: CNC(=S)C1(c2cccnc2)CCCCC1=CCOc1ccccc1 (configuration not stated)
The melting point of the first is higher: 142 to 144 °C for the first, 121 to 122 °C for the second.

Compared with `COc1cccc2cc(CNCCNC(=O)C34CC5CC(CC(C5)C3)C4)oc12`, `COc1ccc2cc(C(C)C(=O)NCC3(C)CCC4C(=C(C)C(C)=CC4(C)O)O3)ccc2c1` (configuration not stated) is lower in melting point: 105 to 110 °C for the first, 67 to 70 °C for the second.

First: C[C@@H](n1ncn(-c2ccc(-n3ccnn3)cc2)c1=O)[C@](O)(Cn1cncn1)c1ccc(F)cc1F
Second: c1cc(-n2cccn2)cc(-n2cnc3cc(-c4ccoc4)ccc32)c1
The melting point of the first is higher: 219 to 220 °C for the first, 170 to 173 °C for the second.

Compared with `Cc1c(C#N)n(-c2ccc(Cl)cc2)c(=O)n1C`, `Cc1ccc(Cn2cc(C(=O)C(=O)NC3=CC(=O)OC3)c3ccc(F)cc32)cc1` is higher in melting point: 138 to 140 °C for the first, 218 to 220 °C for the second.

Compared with `O=C1C=C(O)CC(c2ccc3sccc3c2)C1` (configuration not stated), `Nc1ccc(Sc2ccccc2)cc1Br` is lower in melting point: 192 °C for the first, 61 to 63 °C for the second.

First: Nc1ncnc2c1ncn2OC(CO)COCP(=O)(O)O (configuration not stated)
Second: CCOC(=O)Nc1ccc2c(c1)c(N)nn2C(=O)OCC
The melting point of the first is higher: 222 to 225 °C for the first, 173 to 174 °C for the second.

First: CCOC(=O)c1sc(N2CCN(CC3CC3(F)F)C2=O)nc1C (configuration not stated)
Second: CCC(CC)n1cc(Br)nc(N2CCc3cc(OC)cc(C)c32)c1=O
The melting point of the first is lower: 146 to 148 °C for the first, 152 to 154 °C for the second.

First: c1ccc(-c2cnc3ccccc3n2)cc1
Second: Brc1ccc(-n2ccc3cc(OCc4ccccc4)ccc32)cc1
The melting point of the first is lower: 77 °C for the first, 118 °C for the second.

First: Cc1ccc(-c2ccc(S(=O)(=O)Nc3onc(C)c3Br)s2)cc1
Second: CCC(=C(c1ccc(O)cc1)c1ccc(O)cc1)c1cccc(-c2c(C)noc2C)c1
The melting point of the first is higher: 175 °C for the first, 173 to 174 °C for the second.

First: O=C(O)C(=O)c1ccc(SCCOC2CCCCCCC2)cc1
Second: O=[N+]([O-])c1ccccc1NC1CCCCC1
The melting point of the first is lower: 84 to 85 °C for the first, 105 to 107 °C for the second.

First: O=C(CC1CCCC1)c1ccc(Cn2ccc3ncnc-3c2)cc1
Second: O=C(Nc1nccs1)c1nc(-c2ccc(CN3CCOCC3)cc2)[nH]c1-c1ccc(Cl)cc1
The melting point of the first is lower: 153 to 156 °C for the first, 253 to 255 °C for the second.

First: Cc1ccc(-c2c(N=[N+]=[N-])ncnc2OCCO)cc1
Second: COc1ccccc1N1CCN(CCCOc2ccc(-c3cn4cccnc4n3)cc2)CC1
The melting point of the first is lower: 83.5 to 85 °C for the first, 156 to 158 °C for the second.

Compared with `CCOC(OCC)C(N)=O`, `CC(C)[C@H]1COC(=O)N1C(=O)[C@H](C)CC(=O)OC(C)(C)C` is higher in melting point: 47 to 51 °C for the first, 64 to 65 °C for the second.

First: COc1csc(C=CC(=O)c2ccccc2)c1
Second: Cc1nc(C)c(C(C)(O)c2ccccc2)o1 (configuration not stated)
The melting point of the first is higher: 104 °C for the first, 94.5 to 96 °C for the second.

First: Cc1nc(-c2cccc(C(=O)N[C@H]3CC[C@H](CCN4CCN(c5nccc6c5CCO6)CC4)CC3)c2)no1
Second: CCOc1ccc(C(=O)N2CCNC2=Nc2c(Cl)cccc2Cl)cc1
The melting point of the first is higher: 218 °C for the first, 146 to 148 °C for the second.

First: CC(=O)Nc1ccc(OC(=O)CCl)cc1
Second: COc1ccnc(CCc2nc3cc(-c4ccsc4)cnc3[nH]2)c1
The melting point of the first is higher: 186 °C for the first, 154 to 155 °C for the second.

`CN(C)C(=O)OCCn1nc(-c2cc(C(C)(C)C)c(O)c(C(C)(C)C)c2)c2cccnc21` and `CN(C)N1C(=O)C(=Cc2nc(C(C)(C)C)c(O)c(C(C)(C)C)n2)SC1=S` cannot be ordered by melting point: 99 to 101 °C for the first, 100 to 105 °C for the second.

Compared with `Cc1c(N=C2NCCN2)cccc1N(C)C`, `CC(=O)OC1CC2C(=O)CC3C(CCC4(C)C(C(C)C=CC(C)C(C)C)CCC34)C2(C)CC1OC(C)=O` (configuration not stated) is higher in melting point: 116 to 118 °C for the first, 196 to 197 °C for the second.
